One may read the MIC as the lowest concentration that inhibits growth of the organism. The low end stands for inhibition by little substance, the high end for a need for much substance. One may read the inhibition as the drop in the measured response relative to a control, in per cent.

Experimental findings from ChEMBL document CHEMBL3217728, “Searching for innovative quinolone-like scaffolds: synthesis and biological evaluation of 2,1-benzothiazine 2,2-dioxide derivatives” (2012) are described below.

Activity calls are given as the source filed them. The rule behind the calls is not given here. A value given as a limit tells only on which side of the number the result lay.

The subject of assay [1] is Staphylococcus aureus. In words: Antimicrobial activity against Staphylococcus aureus ATCC 25923. The format is functional.
The subject of assay [2] is Enterococcus faecium. The experiment in a line: Antibacterial activity against Enterococcus faecium ATCC 19433. Type of assay: functional.
Assay [3] has as its system Enterococcus faecalis. The experiment in a line: Antibacterial activity against vancomycin-resistant Enterococcus faecalis 26A36. The format is functional.
In assay [4] the test system is Klebsiella pneumoniae. In words: Antimicrobial activity against Klebsiella pneumoniae ATCC 13833. Type of assay: functional.
For assay [5], the system named is Enterococcus faecium. In words: Antibacterial activity against ciprofloxacin, vancomycin-resistant Enterococcus faecium 26A23. The format is functional.
In assay [6] the test system is Staphylococcus aureus. The experiment in a line: Antimicrobial activity against ciprofloxacin, methicillin-resistant Staphylococcus aureus 25A. The format is functional.
Assay [7] in a line: Inhibition of DNA gyrase (unknown origin) by DNA super coiling assay.
Assay [8] deals with T1, Quinolone resistance protein NorA (Staphylococcus aureus) (UniProt P0A0J7).
T1 sequence (whole entry): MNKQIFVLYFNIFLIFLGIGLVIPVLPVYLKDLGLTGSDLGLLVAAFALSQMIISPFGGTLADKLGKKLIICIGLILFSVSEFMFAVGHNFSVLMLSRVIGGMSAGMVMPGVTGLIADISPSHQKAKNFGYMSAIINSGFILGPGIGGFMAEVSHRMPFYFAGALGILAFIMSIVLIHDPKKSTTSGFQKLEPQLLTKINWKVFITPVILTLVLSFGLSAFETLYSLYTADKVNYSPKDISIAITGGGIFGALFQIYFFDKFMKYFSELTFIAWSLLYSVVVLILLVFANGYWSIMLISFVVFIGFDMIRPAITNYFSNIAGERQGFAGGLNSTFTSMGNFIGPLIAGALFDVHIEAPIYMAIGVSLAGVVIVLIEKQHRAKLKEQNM
In words: Inhibition of NorA efflux pump in Staphylococcus aureus SA-1199B assessed as inhibition of EtBr efflux at 50 uM.

Assay [9] concerns Staphylococcus epidermidis. The experiment in a line: Antibacterial activity against Staphylococcus epidermidis ATCC 14990. The format is functional.
The test system of assay [10] is Staphylococcus aureus. In words: Antimicrobial activity against methicillin-sensitive Staphylococcus aureus 21A. The format is functional.
The subject of assay [11] is Escherichia coli. The experiment in a line: Antimicrobial activity against Escherichia coli ATCC 25922. The format is functional.
Assay [12] concerns Pseudomonas aeruginosa. In words: Antimicrobial activity against Pseudomonas aeruginosa ATCC 27853. Type of assay: functional.
In assay [13] the test system is Proteus mirabilis. The experiment in a line: Antimicrobial activity against Proteus mirabilis CCUG 26767. The format is functional.
In assay [14] the test system is Staphylococcus aureus. The experiment in a line: Antimicrobial activity against norA-deficient Staphylococcus aureus SA-K1902. Type of assay: functional.
Assay [15] has as its system Staphylococcus aureus. In words: Antimicrobial activity against norA-overexpressing Staphylococcus aureus SA-K2378. Type of assay: functional.
For assay [16], the target named is T1, Quinolone resistance protein NorA (Staphylococcus aureus). The experiment in a line: Inhibition of NorA efflux pump in norA-overexpressing Staphylococcus aureus SA-K2378 assessed as reduction in ciprofloxacin MIC at 0.78 to 100 ug/ml by isobologram based checkerboard assay.
Assay [17] relates to Staphylococcus aureus. The experiment in a line: Potentiation of ciprofloxacin-induced antibacterial effect against norA-deficient Staphylococcus aureus SA-K1902 at 0.78 to 100 ug/ml by isobologram based checkerboard assay. Type of assay: functional, organism-based.
The test system of assay [18] is Staphylococcus aureus. In words: Potentiation of ciprofloxacin-induced antibacterial effect against wild type Staphylococcus aureus ATCC 25923 at 0.78 to 100 ug/ml by isobologram based checkerboard assay. The format is functional, organism-based.
The test system of assay [19] is Staphylococcus aureus. The experiment in a line: Antimicrobial activity against wild type Staphylococcus aureus ATCC 25923. Type of assay: functional.
Assay [20] addresses T1, Quinolone resistance protein NorA (Staphylococcus aureus). The experiment in a line: Inhibition of NorA efflux pump in norA-overexpressing Staphylococcus aureus SA-K2378 assessed as reduction in ciprofloxacin MIC at 12.5 ug/ml by isobologram based checkerboard assay.
Assay [21] has the same target. In words: Inhibition of NorA efflux pump in norA-overexpressing Staphylococcus aureus SA-K2378 assessed as reduction in ciprofloxacin MIC at 50 ug/ml by isobologram based checkerboard assay.

For the compound `CNC(=O)C1=C(O)c2cc(N)c(N3CCN(C)CC3)cc2N(C2CC2)S1(=O)=O`, the MIC in assay [1], in assay [2], in assay [3], in [4], in assay [5] and in assay [6] was > 128 µg/mL in each case. Moreover, the MIC in [9], in [10], in [11], in assay [12] and in [13] was > 128 µg/mL throughout. For the same compound, the inhibition entry in assay [7] was “inactive”. For the same compound, the inhibition in [8] came to 2%.
Consider `CCOC(=O)C1=C(O)c2cc(N)c(N3CCN(C)CC3)cc2N(C2CC2)S1(=O)=O`, for which the MIC in [1], in assay [2], in assay [3], in assay [4], in assay [5] and in assay [6] was > 128 µg/mL throughout. The MIC in assay [9], in assay [10], in assay [11], in assay [12] and in assay [13] was > 128 µg/mL throughout. The inhibition result in assay [7] was “inactive”. In addition, the inhibition in [8] was found to be 0%.
`COC(=O)[C@H]1[C@H]2C[C@@H]3c4[nH]c5cc(OC)ccc5c4CCN3C[C@H]2C[C@@H](OC(=O)c2cc(OC)c(OC)c(OC)c2)[C@@H]1OC` [RESERPINE]: the minimum inhibitory concentration (MIC) in assay [14], in assay [15] and in [19] was > 100 µg/mL each time. For the same compound, the inhibition result in assay [16] is “Active”. The outcome in [17] and in [18] was inactive.
For the compound `Fc1ccc([C@@H]2CCNC[C@H]2COc2ccc3c(c2)OCO3)cc1` [PAROXETINE], the MIC in [14], in assay [15] and in assay [19] was > 100 µg/mL throughout. Also, the inhibition entry in [16] is “Active”. Further, the outcome in assay [17] and in assay [18] was inactive.
As to `CC1C(=O)c2cc(N)c(N3CCN(C)CC3)cc2N(C2CC2)S1(=O)=O` (stereo unspecified), the MIC is > 128 µg/mL in assay [1]; > 128 µg/mL in assay [2]; > 128 µg/mL in assay [3]; > 100 µg/mL in assay [14]; > 128 µg/mL in assay [4]; > 128 µg/mL in [5]. In addition, the MIC is > 100 µg/mL in assay [15]; > 128 µg/mL in assay [6]; > 128 µg/mL in assay [9]; > 128 µg/mL in [10]; > 128 µg/mL in assay [11]; > 128 µg/mL in assay [12]. The figures for the MIC in assay [13] and in assay [19] were > 128 µg/mL and > 100 µg/mL, respectively. Also, the fold change (FC) in [20] came to 4. Further, the inhibition result in assay [16] is “Dose-dependent effect”; in assay [8], 27%. Moreover, in assay [7], the inhibition result was “inactive”. Besides, the outcome in assay [17] and in assay [18] was inactive.
Consider `CN1CCN(c2cc3c(cc2N)C(=O)CS(=O)(=O)N3C2CC2)CC1`, for which the MIC in [1], in [2], in assay [3], in [4], in assay [5] and in assay [6] was > 128 µg/mL throughout. Moreover, the MIC in assay [9], in assay [10], in assay [11], in [12] and in [13] was > 128 µg/mL in each case. In assay [7], the inhibition entry is “inactive”. Moreover, the inhibition in assay [8] was determined as 7%.
For the compound `CCOC(=O)C1(C)C(=O)c2cc(N)c(N3CCN(C)CC3)cc2N(C2CC2)S1(=O)=O` (stereo unspecified), the MIC in assay [1] was > 128 µg/mL; in assay [2], > 128 µg/mL; in assay [3], > 128 µg/mL; in assay [14], > 100 µg/mL; in [4] it was > 128 µg/mL; in assay [5], > 128 µg/mL. In addition, the MIC in assay [15] is > 100 µg/mL; in assay [6], > 128 µg/mL; in assay [9], > 128 µg/mL; in assay [10] it was > 128 µg/mL; in assay [11] it was > 128 µg/mL; in assay [12], > 128 µg/mL. Besides, the MIC is > 128 µg/mL in assay [13] and > 100 µg/mL in [19]. In addition, the values for the inhibition entry in assay [16] and in [8] were “Dose-dependent effect” and 25%, respectively. Also, in [7], the inhibition result was “inactive”. The outcome in assay [17] and in assay [18] was inactive. Further, the fold change (FC) in [21] is 4.
